From patent US5395847A, “Imidazolyl-alkenoic acids” (SmithKline Beecham Corporation, priority 1994, dated 1995)

Columns and labels:
[1] = molecular target: T1, human AT-1 receptors (Homo sapiens, UniProt P30556); assay: Radioligand binding assay, 125I-angiotensin II displacement; details: human AT-1 receptors expressed in mouse cell line L h AT-1-D6; 80 pM 125I-angiotensin II; 1 hour at 25° C.; read-out: IC50 (concentration of antagonist needed to displace 50% of the total specifically bound angiotensin II)
T1 construct: expressed in transfected cells
T1 sequence (P30556 1-359): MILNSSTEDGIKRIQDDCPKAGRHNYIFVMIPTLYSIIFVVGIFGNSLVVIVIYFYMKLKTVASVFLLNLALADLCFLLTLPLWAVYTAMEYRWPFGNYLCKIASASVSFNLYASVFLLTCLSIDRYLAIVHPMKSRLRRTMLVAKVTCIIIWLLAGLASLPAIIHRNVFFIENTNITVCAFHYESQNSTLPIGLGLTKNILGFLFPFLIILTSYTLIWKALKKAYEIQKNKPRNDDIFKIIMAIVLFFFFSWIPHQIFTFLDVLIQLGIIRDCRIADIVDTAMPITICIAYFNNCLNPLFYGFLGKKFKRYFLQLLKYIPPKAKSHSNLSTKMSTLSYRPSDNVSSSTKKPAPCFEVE
Method: The radioligand binding assay is a modification of a method previously described in detail (Gunther et al., Circ. Res. 47:278, 1980). A stable clone of human AT-1 receptors expressed in the mouse cell line L h AT-1-D6 is used. Cells are incubated in Tris buffer with 80 pM of 125I-angiotensin II with or without angiotensin II antagonists for 1 hour at 25° C. The incubation is terminated by rapid filtration and receptor bound ^125 I-angiotensin II trapped on the filter is quantitated with a gamma counter. The potency of angiotensin II antagonists is expressed as the IC50 which is the concentration of antagonist needed to displace 50% of the total specifically bound angiotensin II.

[2] = system: pressor response to angiotensin II; assay: Inhibition of pressor response to angiotensin II in conscious rats; type: in vivo; details: Rattus norvegicus, po, orally, change in mean arterial pressure in response to intravenous angiotensin II, read-out: IC50 (dose of compound needed to produce 50% inhibition of the control response to angiotensin II)
Method: Rats are prepared with indwelling femoral arterial and venous catheters and a stomach tube (Gellai et al., Kidney Int. 15:419, 1979). Two to three days following surgery the rats are placed in a restrainer and blood pressure is continuously monitored from the arterial catheter with a pressure transducer and recorded on a polygraph. The change in mean arterial pressure in response to intravenous injections of […] angiotensin II is compared at various time points prior to and following the administration of the compounds intravenously or orally at doses of 0.1 to 300 mg/k g. The dose of compound needed to produce 50% inhibition of the control response to angiotensin II (IC50) is used to estimate the potency of the compounds.

IC50 [1]: 342 nM
Structure (SMILES): Br.CCCCc1ncc(/C=C(\Cc2cccs2)C(=O)Oc2ccc3c(c2)CCC3)n1Cc1ccc(C(=O)O)c2ccccc12 [Example 1, E-α-[[2-n-butyl-1-[(4-carboxy-1-naphthaleneyl)methyl]-1H-imidazol-5-yl]methylene]-2-thiophenepropanoic Acid Indan-5-yl Ester, Hydrobromide]
ED50 [2]: 0.053 mg/kg
